Laboratory results: article doi:10.1101/2023.04.05.535784v2 (bioRxiv, 2023)
Positions of bridges follow the written chain, without caps; N, C: chain ends. Residues, ends and D or L forms follow the SMILES beside them.

Columns and labels:
[1] = tested on: thrombus formation in the lung; details: mice, oral, three consecutive days
THP-1 cells = details: cited from earlier work

Structure (SMILES): CC(C)C[C@@H]1NC(=O)[C@@H]2CSSC[C@@H]3NC(=O)[C@H](Cc4c[nH]c5ccccc45)NC(=O)[C@H](C)NC(=O)CNC(=O)CNC(=O)[C@H](CO)NC(=O)[C@H](CCCCN)NC(=O)[C@@H](N)CSSC[C@@H]4NC(=O)[C@H](CSSC[C@H](NC(=O)[C@H](Cc5ccccc5)NC(=O)CNC(=O)[C@H](C(C)C)NC1=O)C(=O)N[C@@H](Cc1ccc(O)cc1)C(=O)NCC(=O)N[C@@H]([C@@H](C)O)C(=O)NCC(=O)N[C@H](C(=O)O)CSSC[C@H](NC(=O)[C@H](CC(N)=O)NC(=O)CNC4=O)C(=O)NCC(=O)N2)NC(=O)CNC(=O)[C@H](Cc1c[nH]cn1)NC(=O)[C@@H]1CCCN1C(=O)[C@H](CC(=O)O)NC(=O)[C@H](Cc1ccccc1)NC(=O)CNC3=O [ginsentide TP1] (H-CKSGGAWCGFDPHGCCGNCGCLVGFCYGTGC-OH; disulfide 1-16, 8-21, 15-26, 19-31)
- thrombus formation in the lung compared to control, 30 mg/kg [1]: significantly reduced
- increase in IL-6, IL-8, IL-10, and TNFα (THP-1 cells): no observable increase
